Laboratory results reported in PMC5823845 (Bioorganic & Medicinal Chemistry, 2018).
Like-named read-outs stand apart in the source and are kept apart here.

Legend:
[1] = Stability and intrinsic clearance in cryopreserved hepatocytes; settings: human
Procedure: (§2) Reactions were terminated by addition of 100 μL of acetonitrile containing carbamazepine as the analytical internal standard. Samples were centrifuged and the supernatant fractions analysed by LC-MS/MS. The instrument responses (peak heights) were referenced to the zero time-point samples (as 100%) in order to determine the percentage of compound remaining. Ln plots of the % remaining, for each compound, were used to determine the half-life for the hepatocyte incubations.

[2] = as above; settings: rat
Procedure: as §2

in vivo [3] = settings: C57, mouse, iv, 1 mg/kg
Procedure: (§3) Blood was centrifuged to yield plasma for quantification of parent compound using UPLC-MS/MS. […] Terminal blood samples (approximately 300 μL) were subsequently taken by cardiac puncture under CO2 terminal anaesthesia. Once collected, blood samples were transferred to tubes containing 28 μL of citrate as anti-coagulant and held on ice, for <30 minutes, before centrifugation to generate plasma. Plasma samples aliquots (50 μL) were treated with four volumes of acetonitrile, containing diclofenac as analytical internal standard. Precipitated proteins were removed by centrifugation and the supernatant was analysed by UPLC-MS/MS. Pharmacokinetic parameters were determined by non-compartmental analysis using the software package PK Solutions 2.0 from Summit Research Services.

human RXR α = biological target: T1, human RXR α (Homo sapiens, UniProt P19793); assay: Retinoid X Receptor radioligand binding assay, [3H] 9-cis-retinoic acid; settings: human recombinant receptor
T1 construct: Panlabs Eurofins Pharma Discovery Services (CRO)
T1 sequence (P19793 1-462): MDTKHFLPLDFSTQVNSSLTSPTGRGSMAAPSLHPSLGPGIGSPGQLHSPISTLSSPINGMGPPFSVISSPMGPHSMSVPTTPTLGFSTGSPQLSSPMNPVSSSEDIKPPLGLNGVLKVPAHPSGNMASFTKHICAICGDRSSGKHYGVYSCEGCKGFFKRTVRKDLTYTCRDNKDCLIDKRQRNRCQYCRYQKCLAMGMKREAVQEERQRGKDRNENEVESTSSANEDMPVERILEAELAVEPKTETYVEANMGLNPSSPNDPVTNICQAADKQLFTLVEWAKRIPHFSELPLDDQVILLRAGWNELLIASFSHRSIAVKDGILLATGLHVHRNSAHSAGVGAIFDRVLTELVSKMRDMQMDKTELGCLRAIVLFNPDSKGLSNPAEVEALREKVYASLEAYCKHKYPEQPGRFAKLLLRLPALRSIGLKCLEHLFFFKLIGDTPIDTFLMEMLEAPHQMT
Procedure: (§1) [22] The Retinoid X Receptor RXRα and RXRβ radioligand binding assays using [^3H] 9-cis-retinoic acid and the respective human recombinant receptors, were carried out by the CRO Panlabs Eurofins Pharma Discovery Services UK Limited, Gemini Crescent, Dundee Technology Park, Dundee, DD2 1SW.

human RXR β = biological target: T2, human RXR β (Homo sapiens, UniProt P28702); assay: as above; settings: human recombinant receptor
T2 construct: Panlabs Eurofins Pharma Discovery Services (CRO)
T2 sequence (P28702 1-533): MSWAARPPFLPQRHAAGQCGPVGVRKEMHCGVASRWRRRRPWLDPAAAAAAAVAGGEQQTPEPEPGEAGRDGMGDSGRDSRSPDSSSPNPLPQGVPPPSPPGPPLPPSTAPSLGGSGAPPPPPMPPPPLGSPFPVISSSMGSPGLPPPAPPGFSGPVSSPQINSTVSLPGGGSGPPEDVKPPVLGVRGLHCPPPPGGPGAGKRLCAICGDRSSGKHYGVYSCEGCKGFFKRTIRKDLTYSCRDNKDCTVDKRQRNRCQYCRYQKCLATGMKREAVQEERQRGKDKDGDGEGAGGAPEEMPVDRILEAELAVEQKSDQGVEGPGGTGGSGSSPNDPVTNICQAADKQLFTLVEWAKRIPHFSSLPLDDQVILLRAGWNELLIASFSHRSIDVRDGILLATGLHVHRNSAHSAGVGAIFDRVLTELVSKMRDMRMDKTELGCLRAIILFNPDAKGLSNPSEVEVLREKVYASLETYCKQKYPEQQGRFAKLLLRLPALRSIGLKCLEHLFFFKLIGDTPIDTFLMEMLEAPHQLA
Procedure: as §1

[4] = test system: Salmonella Typhimurium (TA98, TA100, and TA1535); assay: Ames test; format: cell-based; settings: three bacterial strains; presence and absence of S9
Description: For the first two assays, photometry is used for detection.

[5] = test system: Salmonella Typhimurium (TA98, TA100, and TA1535); assay: Bacterial cytotoxicity; format: cell-based; settings: up to 100 μM; presence and absence of S9
Description: The results for cytotoxicity are expressed as percent of control growth (OD650). A compound with growth less than 60% of control is flagged and considered to be cytotoxic.

[6] = Stability and intrinsic clearance in cryopreserved hepatocytes; settings: mouse
Procedure: as §2

[7] = as above; settings: dog
Procedure: as §2

[8] = C57 mice, n = 3
Procedure: as §3

[9] = Log D pH 7.4, octanol/buffer shake flask method
Procedure: Briefly, octanol (pre-saturated with buffer) is added to the test compound and sonicated. Buffer at pH 7.4 (presaturated with octanol) is then added to the octanol. […] The system is mixed to allow distribution of the compound between the two phases.
Log D = Log (Coct / Caq ). Where: Coct = Concentration in octanol sample (corrected for dilution) and Caq = Concentration in aqueous sample (corrected for dilution)

PK studies in rats = format: in vivo, Sprague-Dawley rats
Procedure: The Test Items were orally administered at a dose of 10 mg/kg and a dosing volume of 10 mL/kg. […] The Test Items were intravenously administered at a dose of 0.5 mg/kg and a dosing volume of 2 mL/kg. […] Whole blood concentrations of the Test Items were measured using LC-MS/MS and selected pharmacokinetic parameters calculated using Pharsight WinNonLin software. For furthers details see Supplementary data file.

[10] = Beagle dogs, n = 3
Procedure: (§4) intravenous (bolus) injection at a dose level of 0.2 mg/kg. […] Intravenous doses were administered by bolus injection into a cephalic vein at a dose volume of 1 mL/kg. Oral doses were administered by gastric intubation at a dose volume of 5 mL/kg. […] Pharmacokinetic parameters were calculated using the computer program Phoenix WinNonlin version 6.3 (Pharsight Corporation, USA).

in vivo [11] = settings: male, Beagle, dog, iv, 0.5 mg/kg
Procedure: as §4

[12] = Stability and intrinsic clearance in cryopreserved hepatocytes; settings: cynomolgus monkey
Procedure: as §2

[13] = Intrinsic clearance in liver microsomes; format: in vitro ADME; settings: liver microsomes, 37 °C, NADPH, 45 min, mean of 5
Procedure: The reaction is terminated by the addition of methanol. Following centrifugation, the supernatant is analyzed on the LC-MS/MS. […] The data is the mean on 5 separate experiments.
The ln peak area ratio (compound peak area/internal standard peak area) is plotted against time and the gradient of the line determined.
(see Supplementary data file for details).

Q: What does the source list for CCOc1c(Cl)cc(C(=O)Nc2ccc(C(=O)O)c(C)c2)cc1OC(C)C [Compound 56, 4-(3-Chloro-4-ethoxy-5-isopropoxybenzamido)-2-methylbenzoic acid]?
A: half-life at 1 μM [1]: > 7.5 h; half-life at 30 μM [1]: > 7.5 h; hepatocyte CLint at 1 μM [1]: < 3 µL/min/1e6 cells; hepatocyte CLint at 30 μM [1]: < 3 µL/min/1e6 cells; half-life at 1 μM [2]: 5.95 h; half-life at 30 μM [2]: > 7.5 h; hepatocyte CLint at 1 μM [2]: 4 µL/min/1e6 cells; hepatocyte CLint at 30 μM [2]: < 3 µL/min/1e6 cells; Vd (in vivo [3]): 0.3 L/kg; clearance (in vivo [3]): 4.7 mL/min/kg; IC50 (human RXR α): > 10 µM; IC50 (human RXR β): > 10 µM; Ames test [4]: negative; bacterial cytotoxicity tests [5]: negative; half-life at 1 μM [6]: 3.73 h; half-life at 30 μM [6]: > 5 h; hepatocyte CLint at 1 μM [6]: 12 µL/min/1e6 cells; hepatocyte CLint at 30 μM [6]: < 9 µL/min/1e6 cells; half-life at 1 μM [7]: > 7.5 h; half-life at 30 μM [7]: > 7.5 h; hepatocyte CLint at 1 μM [7]: < 3 µL/min/1e6 cells; hepatocyte CLint at 30 μM [7]: < 3 µL/min/1e6 cells; po F ([8]; 1 mg/kg iv and po, 1 mg/kg): 84%; iv t1/2 ([8]; 1 mg/kg iv): 1.9 h; po Cmax ([8]; 1 mg/kg po): 2007 ng/mL; po Tmax ([8]; 1 mg/kg po): 0.25 h; logD [9]: 1.8; rat pK AUC po (PK studies in rats; 10 mg/kg po, 8% Ethanol/92% PEG-400, n = 4): 70,765 ng·min mL^−1; rat pK Cl (PK studies in rats; iv 0.5 mg/kg, n = 4): 7 mL/kg/min; bioavailability (PK studies in rats; male, Sprague-Dawley, whole blood, rat, 10 mg/kg po vs 0.5 mg/kg iv, n = 4, read-out: rat pK F%): 40%; po F ([10]; 0.5 mg/kg iv, 1 mg/kg po): 83%; iv t1/2 ([10]; 0.5 mg/kg iv): 9.2 h; po Cmax ([10]; 1 mg/kg po): 2050 ng/mL; po Tmax ([10]; 1 mg/kg po): 0.5 h; Vd (in vivo [11]): 0.66 L/kg; clearance (in vivo [11]): 2.3 mL/min/kg; half-life at 1 μM [12]: > 7.5 h; half-life at 30 μM [12]: > 7.5 h; hepatocyte CLint at 1 μM [12]: < 3 µL/min/1e6 cells; hepatocyte CLint at 30 μM [12]: < 3 µL/min/1e6 cells; microsomal CLint ([13]; human microsomes): 5.3 µL/min/mg; microsomal CLint ([13]; mouse microsomes): 37.6 µL/min/mg
